Results as given in patent US11464802B2, “3-substituted piperidine compounds for Cbl-b inhibition, and use thereof” (Nurix Therapeutics, Inc., priority 2019, dated 2022).

Columns and labels:
[1] = tested on: primary human total T-cells; test: Primary human total T-cell activation: CD25 surface staining, Biological Example 13; assay type: cell-based; settings: 48 hours, fold change over baseline; for fold induction at 1 µM: inhibitor 1 μM
[2] = tested on: primary human total T-cells; test: Primary human total T-cell activation: IL-2 secretion, Biological Example 9; assay type: cell-based; settings: 48 hours, fold change over baseline; for fold induction at 1 µM: inhibitor 1 μM

C[C@@H]1CN(Cc2cc3c(c(C(F)(F)F)c2)CN(c2cccc(C4(Cc5nncn5C)COC4)c2)C3=O)CCC1(F)F [Compound 8, (R)-6-((4,4-difluoro-3-methylpiperidin-1-yl)methyl)-2-(3-(3-((4-methyl-4H-1,2,4-triazol-3-yl)methyl)oxetan-3-yl)phenyl)-4-(trifluoromethyl)isoindolin-1-one]
fold induction at 0.3 µM ([1]; anti-CD3/anti-CD28 co-stimulation, inhibitor 0.3 μM, Table 13-1): > 1.39 | fold induction at 1 µM ([1]; anti-CD3/anti-CD28 co-stimulation, Table 13-1, read-out: CD25 staining CD3/CD28 1 μM): > 1.39 | fold induction at 1 µM ([1]; anti-CD3 alone, Table 13-1, read-out: CD25 staining CD3 1 μM): > 1.14 | fold induction at 3 µM ([1]; anti-CD3 alone, inhibitor 3 μM, Table 13-1): > 1.14 | fold induction at 0.3 µM ([2]; anti-CD3/anti-CD28 co-stimulation, inhibitor 0.3 μM, Table 9-1): > 15 | fold induction at 1 µM ([2]; anti-CD3/anti-CD28 co-stimulation, Table 9-1, read-out: IL-2 secretion CD3/CD28 1 μM): > 15 | fold induction at 1 µM ([2]; anti-CD3 alone, Table 9-1, read-out: IL-2 secretion CD3 1 μM): > 0.66 | fold induction at 3 µM ([2]; anti-CD3 alone, inhibitor 3 μM, Table 9-1): > 0.66
